Data: patent US20230106943A1, “ENGINEERED ANTIMICROBIAL PEPTIDES AND USAGE THEREOF” (Peptilogics, Inc., priority 2021, published 2023)
Where “and” joins values, the source holds several entries; their conditions need not be identical. Equal entries are not always repeated. No end group written: not given here.

Experiments:
Assay type in all cases: physicochemical
[1] = Stability of 5 mg/mL SEQ ID NO: 1 solution pH 5.0 stored at 40° C. or −20° C. (content, pH, HPLC area %); conditions: for level of impurity at RRT 0.98: 5 mg/mL solution pH 5.0
Protocol: Enhanced stability was shown of the peptide formulation after 54 days of storage at 40° C. as a liquid solution with a concentration of 5 mg/mL of SEQ ID NO: 1 at pH of 5.0. FIG. 4 depict the overlaid chromatograph of SEQ ID NO: 1 after 7 days at 40° C. (bottom graph) and after 54 days at 40° C. (top graph).

[2] = Example 4 stability of concentrated solutions: pH (method 05627)
Protocol: The peptide formulation of SEQ ID NO: 1 dissolved in a saline solution with a pH of 5.0±0.1 was tested for stability under either −20° C. or 40° C. with 75% relative humidity (RH). […]

[3] = Example 7 stability of 1 mg/mL SEQ ID NO: 1 solutions at pH 4-7, HPLC % area over storage
Protocol: SEQ ID NO: 1 was dissolved in sterile water for injection resulting solutions at a concentration of 1 mg/mL and pH adjusting agents were added to achieve a pH value in the range of 4-7. The pH adjusting chosen were acetate and sodium hydroxide and citric acid (for pH 4). Each of the solutions were filtered through a 0.45 um filter and samples were stored in 1 mL aliquots at 40° C., room temperature (approximately 20° C.), refrigerated conditions (5° C.), and frozen at −20° C. Samples were withdrawn at regular intervals (t=0, and Days 2, 7, 14, and 28) and analyzed by HPLC to determine if chemical degradation of the peptide could be detected in any samples. Degradation rates between samples of each pH were also analyzed.

RRWVRRVRRVWRRVVRVVRRWVRR-NH2 [SEQ ID NO: 1]
level of impurity at RRT 0.98 ([1]; 7 days at 40° C.): 0.4% | level of impurity at RRT 0.98 ([1]; 54 days at 40° C.): 1.1% | Main peak SEQ ID NO: 1 area % ([1]; 7 days/40° C.): 97.2% and 97.1% | SEQ ID NO: 1 content ([1]; 7 days/40° C.): 5.05 mg/mL and 5.11 mg/mL | Solution pH ([1]; 7 days/40° C.): 4.98 and 5.02 | Main peak SEQ ID NO: 1 area % ([1]; 7 days/−20° C.): 97.2% | SEQ ID NO: 1 content ([1]; 7 days/−20° C.): 5.11 mg/mL | Main peak SEQ ID NO: 1 area % ([1]; 14 days/40° C.): 96.2% and 94.7% | SEQ ID NO: 1 content ([1]; 14 days/40° C.): 5.05 mg/mL and 5.01 mg/mL | Solution pH ([1]; 14 days/40° C.): 5.01 and 5.00 | SEQ ID NO: 1 content ([1]; 14 days/−20° C.): 5.08 mg/mL | Solution pH ([1]; 14 days/−20° C.): 4.97 | Main peak SEQ ID NO: 1 area % ([1]; 54 days/40° C.): 95.6% | SEQ ID NO: 1 content ([1]; 54 days/40° C.): 4.99 mg/mL | Solution pH ([1]; 54 days/40° C.): 4.96 | Main peak SEQ ID NO: 1 area % ([1]; 54 days/−20° C.): 96.9% | Area % of concurrent analytical standard ([1]; standard run with the 7 days samples): 97.1 ± 0.4% | Area % of concurrent analytical standard ([1]; standard run with the 14 days samples): 95.5 ± 0.5% | Area % of concurrent analytical standard ([1]; standard run with the 54 days samples): 96.8 ± 0.8% | pH ([2]; 15.3 mg/mL solution, 40° C. and 75% RH, 1 Month): Average Reading: 4.9 | pH ([2]; 15.3 mg/mL solution, 40° C. and 75% RH, 2 Month): Average Reading: 5.0 | pH ([2]; 15.3 mg/mL solution, 40° C. and 75% RH, 3 Month): Average Reading: 5.0 | pH ([2]; 15.3 mg/mL solution, 40° C. and 75% RH, 6 Month): 5.0 | pH ([2]; 15.3 mg/mL solution, −20° C., 0 Month): Average Reading: 4.9 | pH ([2]; 15.3 mg/mL solution, −20° C., 1 Month): Average Reading: 5.0 | pH ([2]; 15.3 mg/mL solution, −20° C., 2 Month): Average Reading: 4.9 | pH ([2]; 15.3 mg/mL solution, −20° C., 3 Month): Average Reading: 5.0 | pH ([2]; 15.3 mg/mL solution, −20° C., 6 Month): 5.0 | pH Average Reading ([2]; 36.7 mg/mL solution, 40° C. and 75% RH, 1 Month): Average Reading: 4.8 | pH Average Reading ([2]; 36.7 mg/mL solution, 40° C. and 75% RH, 2 Month): Average Reading: 4.9 | pH Average Reading ([2]; 36.7 mg/mL solution, 40° C. and 75% RH, 3 Month): Average Reading: 5.0 | pH ([2]; 36.7 mg/mL solution, 40° C. and 75% RH, 6 Month): 4.8 | pH ([2]; 36.7 mg/mL solution, −20° C., 0 Month): Average Reading: 4.9 | pH ([2]; 36.7 mg/mL solution, −20° C., 1 Month): Average Reading: 4.8 | pH ([2]; 36.7 mg/mL solution, −20° C., 2 Month): Average Reading: 4.9 | pH ([2]; 36.7 mg/mL solution, −20° C., 3 Month): Average Reading: 5.0 | pH ([2]; 36.7 mg/mL solution, −20° C., 6 Month): 4.9 | pH Average Reading ([2]; 72.4 mg/mL solution, 40° C. and 75% RH, 1 Month): Average Reading: 4.7 | pH Average Reading ([2]; 72.4 mg/mL solution, 40° C. and 75% RH, 2 Month): Average Reading: 4.9 | pH Average Reading ([2]; 72.4 mg/mL solution, 40° C. and 75% RH, 3 Month): Average Reading: 5.0 | pH ([2]; 72.4 mg/mL solution, 40° C. and 75% RH, 6 Month): 4.8 | pH Average Reading ([2]; 72.4 mg/mL solution, −20° C., 0 Month): Average Reading: 4.9 | pH Average Reading ([2]; 72.4 mg/mL solution, −20° C., 1 Month): Average Reading: 4.7 | pH Average Reading ([2]; 72.4 mg/mL solution, −20° C., 2 Month): Average Reading: 4.8 | pH Average Reading ([2]; 72.4 mg/mL solution, −20° C., 3 Month): Average Reading: 5.0 | pH ([2]; 72.4 mg/mL solution, −20° C., 6 Month): 4.8 | pH ([2]; 81.4 mg/mL solution, 40° C. and 75% RH, 1 Month): 4.9 | pH ([2]; 81.4 mg/mL solution, 40° C. and 75% RH, 2 Month): 4.9 | pH ([2]; 81.4 mg/mL solution, 40° C. and 75% RH, 3 Month): 4.9 | pH ([2]; 81.4 mg/mL solution, −20° C., 0 Month): 4.6 | pH ([2]; 81.4 mg/mL solution, −20° C., 1 Month): 4.8 | pH ([2]; 81.4 mg/mL solution, −20° C., 2 Month): 4.9 | pH ([2]; 81.4 mg/mL solution, −20° C., 3 Month): 4.6 | impurity change by HPLC % area ([3]; pH 4-7 samples, after 7 days of storage at 40° C.): no significant evidence of impurity increase | overall stability as a function of pH ([3]; pH 4 and pH 5 made with acetic acid): maximum stability | impurity change by HPLC % area ([3]; prepared at pH 4 with citrate, after 27 days of storage at 40° C.): increase in impurities | impurity change by HPLC % area ([3]; prepared at pH 7, after 27 days of storage at 40° C.): increase in impurities
